{"source": "PubChem BioAssay AID588355", "about": "(Sanford-Burnham Center for Chemical Genomics, 2011)", "molecular_target": "Hexokinase HKDC1 (Homo sapiens) (UniProt Q2TB90)", "sequence (Q2TB90 whole entry, looked up)": "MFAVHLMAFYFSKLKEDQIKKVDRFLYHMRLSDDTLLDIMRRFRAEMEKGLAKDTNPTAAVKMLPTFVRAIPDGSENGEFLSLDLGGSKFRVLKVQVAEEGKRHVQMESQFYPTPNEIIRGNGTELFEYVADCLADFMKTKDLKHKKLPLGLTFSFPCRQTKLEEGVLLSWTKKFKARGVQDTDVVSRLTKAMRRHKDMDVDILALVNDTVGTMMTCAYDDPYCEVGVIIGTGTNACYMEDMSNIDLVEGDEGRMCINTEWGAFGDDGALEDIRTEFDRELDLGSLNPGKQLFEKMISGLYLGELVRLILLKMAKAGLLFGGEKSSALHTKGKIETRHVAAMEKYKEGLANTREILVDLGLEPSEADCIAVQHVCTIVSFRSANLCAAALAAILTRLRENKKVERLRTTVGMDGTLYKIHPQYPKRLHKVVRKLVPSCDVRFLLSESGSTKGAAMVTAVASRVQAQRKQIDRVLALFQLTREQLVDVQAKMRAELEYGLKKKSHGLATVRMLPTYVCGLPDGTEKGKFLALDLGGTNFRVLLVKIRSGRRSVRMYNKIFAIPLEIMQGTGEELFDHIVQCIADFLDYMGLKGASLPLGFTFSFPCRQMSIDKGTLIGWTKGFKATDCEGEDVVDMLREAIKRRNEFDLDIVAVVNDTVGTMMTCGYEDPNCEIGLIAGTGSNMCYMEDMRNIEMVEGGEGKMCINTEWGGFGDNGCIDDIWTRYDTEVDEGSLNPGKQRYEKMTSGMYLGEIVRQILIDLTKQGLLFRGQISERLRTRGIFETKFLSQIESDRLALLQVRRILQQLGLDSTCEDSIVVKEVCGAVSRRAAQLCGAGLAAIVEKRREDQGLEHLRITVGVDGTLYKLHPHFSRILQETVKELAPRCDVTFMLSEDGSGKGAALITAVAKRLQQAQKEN", "experiment": "HKDC1 hexokinase inhibitors, SAR follow-up, biochemical, set 2 (AID 588355)", "settings": "recombinant HKDC1, G6PDH/diaphorase/resazurin coupled fluorescence", "note": "Active and inactive are the calls of the source.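 Rule for the calls: active = IC50 below 20 µM in the confirmatory dose-response test; inactive = the rest.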", "data": [{"smiles": "COc1cc2c(cc1OC)-c1cc(N3CCc4ccccc4C3)nc(=O)n1CC2", "values": [{"measurement": "IC50", "result": "inactive"}]}]}
